Test results published in patent publication US12285404B2, “Prevention of rosacea inflammation” (The Regents of the University of California, priority 2013, dated 2025).

Tests used:
[1] = test system: protease that cleaves full length cathelicidin; details: cited from earlier work
[2] = test system: erythematotelangiectatic rosacea subjects; assay: Topical 4% cromolyn sodium vs placebo in erythematotelangiectatic rosacea subjects, clinical evaluation and tape strips; assay type: in vivo, human
Protocol: (a, b) NHEK cells were co-cultured with 100 μl of supernatant of human cord blood-derived MCs after degranulation by 48/80, or serine buffer. (a) After 24 hrs of co-culture, NHEK cells were washed well and MMP and KLK activities in the cells were obtained, and (b) For the comparison of Cath LL-37 mRNA expression in NHEK cells, 100 nM of 1,25(OH)2VD3 was added to same co-culture. (c) 10 erythematotelangiectatic rosacea subjects were randomized to apply a solution containing either the MC stabilizer (4% cromolyn sodium) (n=5) or placebo (n=5) topically. Tape strips were obtained at the first visit (v1) and last visit (v4) and proteases and protein were separately extracted. Statistics: t-test ***p<0.001 (n=3), *p<0.05 (n=5).
2 mm skin biopsies were taken from the faces of healthy and rosacea subjects, as well as tape strips from the face of erythematotelangiectatic rosacea subjects in the dermatology clinic at the University of California, San Diego. All the procedures involving human subjects were approved by the University of California San Diego Institutional Review Board under the IRB number 071032. Ten randomized adults with erythematotelangiectatic rosacea were applied a water-based solution containing either 4% cromolyn sodium or placebo, topically to their face twice a day, for 8 weeks. A clinical evaluation was performed at each visit. A total six tape strips were obtained from right and left cheek at each of the first visit and the final visit.
To test whether the results were reproducible in humans, 10 randomized adults with erythematotelangiectatic rosacea were used to apply a solution containing either the MC stabilizer (4% cromolyn sodium) or placebo, topically to their face twice daily. Six tape strips were obtained from both right and left cheeks, at the time of first visit (v1) and last visit (v4). After eight week (v4), facial erythema levels decreased in the cromolyn treatment group. MMP, KLK activity and Cath LL-37 protein levels were decreased in the cromolyn treatment group with significant activity in MMP observed (FIG. 5c).

WT mice = assay: MC stabilizer experiment: cromolyn sodium I.P. pretreatment before Cath LL-37 challenge (rosacea mouse model); assay type: in vivo
Protocol: WT mice were injected I.P. with vehicle or cromolyn sodium (10 mg/kg, per day) for 4 days. 24 hours after the last injection, the mice were injected intradermally with 50 μl of […] Cath LL-37 or PBS, twice a day for 2 days. Skin biopsies were taken after 72 hours of observation and (a) Mmp-9 and Cxcl2 mRNA expressions were assessed by RT-PCR, (b) MMP-9 activity was assessed by measuring cleavage of a MMP fluorogenic substrate with specific inhibitors, and (c) immunohistochemistry was performed on frozen skin sections using antibodies against MMP-9 and FcεRI. DAPI stain was also used, as indicated. Statistics: one-way and two-way ANOVA **p<0.01 (n=3).
Mast cell deficient (C57BL/6-KitWsh^−/−) mice were bred. KitWsh^−/− mice bearing the W-sash (Wsh) inversion mutation have MC deficiency, but lack anemia and sterility. […] Wild type mice (C57BL/6) were utilized as control. Mice were shaved 24 hrs before intradermal injection with 50 μl of 50 μM or 320 μM of Cath LL-37 or filtered PBS (n=3), twice a day for 2 days and skin biopsies were taken after 72 hours of observation. Total RNA was extracted and purified by RNeasy Mini Kit (QIAGEN science). For the time course observation, skin biopsies of WT and MC deficient mice were taken at 1, 4, and 24 hrs after Cath LL-37 injection.
For the MC stabilizer experiment: Cromolyn sodium (0.3 mg/mouse/day) (Sigma-Aldrich, St Louis, MO) in PBS was injected I.P. into WT mice for 4 days.
Total-MMP activities were determined by following previously reported study (Kanada et al., 2012). To determine MMP-9 activity, MMP-9 specific inhibitor I (Thermo Fisher Scientific, Chicago, IL) was used.
cDNA was synthesized from RNA using the iScript cDNA Synthesis Kit (BioRad, Hercules, CA) according to the manufacturer's protocol. cDNA was normalized using a NanoDrop spectrophotometer (Thermo Fisher Scientific Inc.). Probes from TagMan Gene Expression Assays (Applied Biosystems ABI, Foster City, CA) were used to analyze gene expressions with following to the manufacturer's instructions. Gapdh mRNA was used as an internal control to validate RNA for each sample. mRNA expression was calculated as the relative expression to Gapdh mRNA, and all data are presented as fold change of each control.
Fluorescence immunohistochemistry. Mouse skin frozen sections were fixed with acetone, washed in 1×PBS, blocked with 5% goat serum/1% BSA for 30 minutes, and incubated with anti-MMP-9 polyclonal antibody (ABBIOTEC, San Diego, CA). For FcERI detection, anti-mouse FcERI PE (eBioscience, San Diego, CA) was used. Images were obtained using a Zeiss LSM510 laser scanning confocal microscope coupled with an Axiovert 100 inverted stage microscope.
According to the obtained results, MC proteases and MMP-9, which are released from MCs upon stimulation by Cath LL-37, are central in promoting rosacea-like skin inflammation. […] To test this hypothesis, cromolyn sodium, a very well-known MC stabilizer, was injected I.P. into WT mice (10 mg/kg, per day) every day for 4 days before Cath LL-37 challenge. 24 hours after the last cromolyn sodium injection, mice were injected with 50 μl of […] Cath LL-37 or PBS, twice a day for 2 days. […] In addition, frozen skin sections were stained with anti-MMP-9 and anti-FIERI antibodies for the detection of MCs.

[3] = 4% cromolyn sodium topically twice daily, v1 vs v4
[4] = cromolyn pretreated, Cath LL-37 challenged WT mice, biopsies after 72 hours, p<0.01

Compound | inhibition of the enzyme in vitro [1] | facial erythema levels ([2]; 4% cromolyn sodium solution topically to face twice daily, after eight week (v4), n=5) | Cath LL-37 protein levels (tape strips) [2, 3] | KLK activity (tape strips) [2, 3] | MMP activity (tape strips) ([2]; 4% cromolyn sodium topically twice daily, v1 vs v4, significant, p<0.05 (n=5)) | mast cell (MC) degranulation (WT mice; FIG. 4 legend, cromolyn sodium 10 mg/kg per day I.P. for 4 days, WT mice) | MMP-9 activity in the tissue (WT mice; cromolyn pretreated, Cath LL-37 challenged WT mice, MMP fluorogenic substrate with specific inhibitors, p<0.01) | Cxcl2 mRNA expression in skin (RT-PCR) (WT mice; [4]) | Mmp-9 mRNA expression in skin (RT-PCR) (WT mice; [4]) | skin inflammation (WT mice; cromolyn sodium I.P. 10 mg/kg per day for 4 days, then 50 μl of 320 μm Cath LL-37 intradermally twice a day for 2 days, WT mice)
NCCc1ccc(S(=O)(=O)F)cc1 [AEBSF, 4-(2-aminoethyl)-benzenesulfonylfluoride] | can inhibit this enzyme in vitro | – | – | – | – | – | – | – | – | –
O=C(O)c1cc(=O)c2c(OCC(O)COc3cccc4oc(C(=O)O)cc(=O)c34)cccc2o1 [cromolyn, cromolyn sodium] | – | decreased | decreased | decreased | decreased | prevents mast cell (MC) degranulation | dramatically decreased | significantly decreased | significantly decreased | did not develop
aprotinin | can inhibit this enzyme in vitro | – | – | – | – | – | – | – | – | –
